Biological target: T1, human orexin-2 (hOX2) receptor (Homo sapiens, UniProt O43614)
T1 construct: expressed in transfected cells
T1 sequence (O43614 1-444): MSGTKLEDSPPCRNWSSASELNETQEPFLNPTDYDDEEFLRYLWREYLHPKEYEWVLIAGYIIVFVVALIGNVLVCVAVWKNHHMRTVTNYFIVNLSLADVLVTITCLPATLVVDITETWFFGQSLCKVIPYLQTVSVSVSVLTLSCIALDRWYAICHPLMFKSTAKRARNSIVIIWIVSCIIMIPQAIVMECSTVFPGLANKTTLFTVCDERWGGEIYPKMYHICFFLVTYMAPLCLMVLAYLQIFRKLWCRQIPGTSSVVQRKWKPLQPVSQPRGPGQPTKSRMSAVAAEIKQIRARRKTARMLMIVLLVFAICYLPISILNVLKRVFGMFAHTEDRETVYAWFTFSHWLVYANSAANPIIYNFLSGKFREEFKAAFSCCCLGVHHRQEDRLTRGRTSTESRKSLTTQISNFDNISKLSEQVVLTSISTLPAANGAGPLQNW
Experiment: Intracellular Ca2+ mobilization assay (FLIPR), CHO(dHFr-) cells expressing hOX2, orexin-A as agonist
Format: cell-based
Conditions: antagonist Kb=IC50/(1+[A]/EC50); orexin-A at EC80; CHO(dHFr-)-OX2R cells; antagonist applied 25 min before agonist
How it was run: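 Cells loaded with 4 μM Fluo-4 AM (1 h, 37° C) in HBSS/20 mM HEPES/2.5 mM probenecid; antagonists (11 concentrations, 0.0001-10 μM) added 25 min at 37° C before orexin-A at its daily-determined EC80. Peak fluorescence minus basal fitted to Hill equation for IC50; Kb=IC50/(1+[A]/EC50).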

SMILES	Kb
O=C(c1ccccc1OC(F)(F)C(F)F)N1CC[C@@H](Nc2cnc3ccccc3n2)C1 [Example 184, [(R)-3-(Quinoxalin-2-ylamino)-pyrrolidin-1-yl]-[2-(1,1,2,2-tetrafluoro-ethoxy)-phenyl]-methanone]	0.0021 µM
Cc1ccc(C(F)(F)F)c(C(=O)N2CC[C@@H](Nc3cnc4ccccc4n3)C2)c1 [Example 185, (5-Methyl-2-trifluoromethyl-phenyl)-[(R)-3-(quinoxalin-2-ylamino)-pyrrolidin-1-yl]-methanone]	0.0075 µM
Cc1nc(C(=O)N2CC[C@@H](Nc3cnc4ccccc4n3)C2)c(-c2ccccc2)s1 [Example 189, (2-Methyl-5-phenyl-thiazol-4-yl)-[(R)-3-(quinoxalin-2-ylamino)-pyrrolidin-1-yl]-methanone]	0.028 µM
O=C(c1ccccc1OC(F)(F)C(F)F)N1CC[C@@H](Nc2cnc3ccc(Cl)cc3n2)C1 [Example 192, [(R)-3-(7-Chloro-quinoxalin-2-ylamino)-pyrrolidin-1-yl]-[2-(1,1,2,2-tetrafluoro-ethoxy)-phenyl]-methanone]	0.0324 µM
Cc1ccc(C(F)(F)F)c(C(=O)N2CC[C@@H](Nc3ccnc(-c4ccccc4)n3)C2)c1 [Example 200, (5-Methyl-2-trifluoromethyl-phenyl)-[(R)-3-(2-phenyl-pyrimidin-4-ylamino)-pyrrolidin-1-yl]-methanone]	0.0073 µM
Cc1ccc(C(F)(F)F)c(C(=O)N2CC[C@@H](Nc3nc4cc(F)c(F)cc4s3)C2)c1 [Example 202, [(R)-3-(5,6-Difluoro-benzothiazol-2-ylamino)-pyrrolidin-1-yl]-(5-methyl-2-trifluoromethyl-phenyl)-methanone]	0.0046 µM
Cc1ccc(C(F)(F)F)c(C(=O)N2CC[C@@H](Nc3nc4c(Cl)cccc4s3)C2)c1 [Example 203]	0.008 µM
Cc1ccc(C(F)(F)F)c(C(=O)N2CC[C@@H](Nc3cnc4cc(C(C)(C)C)ccc4n3)C2)c1 [Example 204]	0.0052 µM
Cc1ccc(C(F)(F)F)c(C(=O)N2CC[C@@H](Nc3cnc4cc(F)ccc4n3)C2)c1 [Example 207]	0.0046 µM
Cc1ccc(C(F)(F)F)c(C(=O)N2CC[C@@H](Nc3cnc4cc(C)c(Cl)cc4n3)C2)c1 [Example 212]	0.0086 µM
Cc1ccc(C(F)(F)F)c(C(=O)N2CC[C@@H](Nc3cnc4cc(Cl)c(C)cc4n3)C2)c1 [Example 213]	0.0371 µM

From US7897627B2, “Heteroaryl derivatives as orexin receptor antagonists” (Hoffmann-La Roche Inc., priority 2007, dated 2011)
